Consider 17 molecules from patent US10717746B2, “Chemical compounds” (ASTRAZENECA AB, priority 2015, dated 2020).

Where only a bound is given, the exact number is not on record here.

Assay [1] has as its target T1, CDK9/CycT1 (Homo sapiens (Human), UniProt P50750). The experiment in a line: CDK9 kinase assay, ATP concentration at Km (mobility shift, Caliper LC3000). It is filed as biochemical. To be noted: 6 μM ATP, 3 nM CDK9/CycT1; read-out: CDK9 ATP conc. at Km (IC50). On the procedure: (§1) Activity of CDK9 was determined in-vitro using a mobility shift assay on a Caliper LC3000 reader (Caliper/PerkinElmer), which measures fluorescence of a phosphorylated and unphosphorylated fluorescent peptide substrate and calculates a ratiometric value to determine percent turnover. Phosphorylation of the peptide in the presence and absence of the compound of interest was determined. Enzyme/substrate/adenosine triphosphate (ATP) mix (3 nM CDK9/CycT1, 6 μM ATP, 1.5 μM CDK9 peptide substrate (FITC-X-GSRTPMY-NH2 (X: epsilon aminocaproic acid)), 50 mM HEPES (pH7.2), 1 mM dithiothreitol, 0.01% tween 20, 50 μg/mL bovine serum albumin, (final assay concentration)) (5 μl) was preincubated with 2 μl of compound for 15 minutes at 25° C. Reactions were initiated with 5 μl of 24 mM MgCl2 (10 mM final assay concentration) in buffer (50 mM HEPES (pH7.2), 1 mM dithiothreitol, 0.01% tween 20, 50 μg/mL bovine serum albumin, (final assay concentration) and incubated at 25° C. for 90 minutes and reactions were stopped by addition of 5 μl of Stop mix consisting of 65 mM HEPES (pH7.2), 35.5 mM EDTA, 0.227% Coatin Reagent 3 (Caliper/PerkinElmer), and 0.003% Tween. Phosphorylated and unphosphorylated substrate was detected by a Caliper LC3000 reader (Caliper/PerkinElmer) in the presence of separation buffer consisting of 100 mM HEPES (pH7.2), 15.8 mM EDTA, 0.1% Coatin Reagent 3 (Caliper/PerkinElmer), 0.015% Brij-35, 5% DMSO, and 5.6 mM MgCl2. CDK9 enzyme was acquired from Carna Biosciences (Catalogue number 04-110), the CDK9 peptide substrate was acquired from Intonation (Boston, Mass.; Custom-made).

The target of assay [2] is T1, CDK9/CycT1. The experiment in a line: CDK9 kinase assay, high ATP concentration (5 mM ATP). Conditions: 1.5 nM CDK9, read-out: CDK9 High ATP conc. (IC50). It is filed as biochemical. Here is the method:
as §1
High ATP assays were run the same way with the following modifications: the final assay concentration of CDK9 was 1.5 nM and the final assay concentration of ATP was 5 mM.

In assay [3] the test system is phosphorylation of RNA Polymerase II (RNAPII) at the Ser2 site in MCF7 cells. The experiment in a line: MCF7 pSer2 RNAPII MOA assay (immunofluorescence). It is filed as cell-based. Conditions: Homo sapiens, MCF7, 6 h, 6-hr treatment, read-out: p-Ser 2 RNAPII (IC50). On the procedure: MCF7 pSer2 RNAPII MOA Assay
This is an immunofluorescence assay to determine the effect of CDK9 inhibitors on phosphorylation of RNA Polymerase II (RNAPII) at the Ser2 site in the breast cancer cell line, MCF7. On day one, 2500 MCF7 cells/well were seeded in 30 μl of growth media (RPMI+10% FBS+1% L-Glu+P/S) in 384-well black-wall clear-bottom plates, incubate plates overnight at 37° C. incubator. On the second day, the cells were treated with CDK9 inhibitors (7 point dose response ranging from 3 μM to 0.004 μM) using an ECHO liquid handler (Labcyte). After 6-hr treatment at 37° C. incubator, the cells were fixed with 30 µl/well 7.4% paraformaldehyde for 15 min at room temperature; the cells were washed twice with PBS, then permeabilized with 0.3% Triton X/PBS for 5 min at room temperature. After washing cells with PBS, the cells were incubated with 1:2000 diluted Anti-Ser2 Phospho-RNA pol II antibody (Covance MMS-129R) in 3% FBS/0.1% PBST overnight at 4° C. On the next day, the cells were washed twice with 0.1% PBST, then incubated with 1:1000 diluted Alexa Fluor 488 Goat-anti-mouse antibody (Life Technologies A-11001) and 1:4000 diluted DAPI at room temperature in dark. After one hour incubation, the cells were washed twice with 0.1% PBST, and once with PBS. The plates where sealed and read on an Acumen eX3 microplate cytometer (TTP Labtech) to assess phosphorylation level in each well.

The next assay concerns MV411 cells. The experiment in a line: MV411 caspase activity assay (Caspase-Glo 3/7). The class given is cell-based. Conditions: Homo sapiens, MV4-11, 6 h, 6-hr treatment, caspase 3/7 induction. On the procedure:
MV411 Caspase Activity Assay
This is a cell assay to measure the induction of caspase activity in the acute myeloid leukemia cell line, MV411 after 6-hr treatment with CDK9 inhibitors. On the first day, 3000 MV411 cells/well were seeded in 50 μl of growth media (IMDM+10% FBS+2% L-Glu+P/S) in 384-well white plates, incubate plates in 37° C. incubator overnight. […] After 6 hour incubation in 37° C. incubator, 25 μl of Caspase-Glo 3/7 reagent (Promega) per well was added into each well, and plates were incubated at room temperature for 30 min in dark. The plates were read on an Infinite M200 microplate reader (Tecan) with a 100 ms integration time.

T1 sequence (P50750 whole entry): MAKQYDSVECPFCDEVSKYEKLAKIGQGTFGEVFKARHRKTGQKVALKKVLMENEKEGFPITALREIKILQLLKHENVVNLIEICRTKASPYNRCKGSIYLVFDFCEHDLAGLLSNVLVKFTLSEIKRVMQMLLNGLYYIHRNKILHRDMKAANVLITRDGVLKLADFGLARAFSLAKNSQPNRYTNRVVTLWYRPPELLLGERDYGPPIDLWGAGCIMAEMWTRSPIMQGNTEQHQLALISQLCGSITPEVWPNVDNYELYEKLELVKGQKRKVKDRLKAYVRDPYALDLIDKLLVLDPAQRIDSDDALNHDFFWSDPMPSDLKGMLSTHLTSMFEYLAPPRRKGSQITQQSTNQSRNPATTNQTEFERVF
T1 sequence (O60563 whole entry partner): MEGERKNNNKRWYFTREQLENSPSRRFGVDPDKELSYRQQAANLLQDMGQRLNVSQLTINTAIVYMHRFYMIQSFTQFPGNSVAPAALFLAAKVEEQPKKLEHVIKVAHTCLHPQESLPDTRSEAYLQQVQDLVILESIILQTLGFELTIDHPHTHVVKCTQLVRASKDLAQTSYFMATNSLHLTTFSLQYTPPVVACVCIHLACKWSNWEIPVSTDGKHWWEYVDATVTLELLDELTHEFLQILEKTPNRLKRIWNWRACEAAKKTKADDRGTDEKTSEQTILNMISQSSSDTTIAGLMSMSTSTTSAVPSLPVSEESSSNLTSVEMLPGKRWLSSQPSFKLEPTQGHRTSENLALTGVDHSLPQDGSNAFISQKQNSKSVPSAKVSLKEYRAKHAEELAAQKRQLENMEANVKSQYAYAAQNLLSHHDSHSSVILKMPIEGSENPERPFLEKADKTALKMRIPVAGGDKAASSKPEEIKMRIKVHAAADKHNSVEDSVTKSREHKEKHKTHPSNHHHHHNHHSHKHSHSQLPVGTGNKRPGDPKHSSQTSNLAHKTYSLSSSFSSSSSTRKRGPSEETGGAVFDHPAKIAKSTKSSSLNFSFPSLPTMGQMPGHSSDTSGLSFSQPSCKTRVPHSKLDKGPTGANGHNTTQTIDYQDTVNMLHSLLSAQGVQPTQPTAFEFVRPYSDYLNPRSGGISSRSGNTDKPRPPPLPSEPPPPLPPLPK

In general, IC50 refers to the point on the concentration scale where inhibition reaches its midpoint. Take `CC(=O)N[C@H]1CCC[C@H](C(=O)Nc2cc(-c3cnn4c3CC(C)(C)C4)c(F)cn2)C1` (relative stereo) [Example 84, (1S,3S)-3-acetamido-N-(4-(5,5-dimethyl-5,6-dihydro-4H-pyrrolo[1,2-b]pyrazol-3-yl)-5-fluoropyridin-2-yl)cyclohexane-1-carboxamide]: the IC50 on CDK9/CycT1 [1] is 28 nM; at CDK9/CycT1 [2], 2130 nM; in assay [3], more than 1950 nM; in the assay with MV411 cells, 2520 nM.
The corresponding values for `CC(=O)N[C@@H]1CCC[C@H](C(=O)Nc2cc(-c3cnn4c3CC(C)C4)c(Cl)cn2)C1` (single isomer, unassigned) [Example 42] are less than 3 nM, 26 nM, 36 nM and 92 nM.
Turning to `CC(=O)N[C@@H]1CCC[C@H](C(=O)Nc2cc(-c3cnn4c3CC(C)CC4)c(Cl)cn2)C1` (single isomer, unassigned) [Example 64], the IC50 on CDK9/CycT1 [1] was less than 3 nM; at CDK9/CycT1 [2], 7 nM; in assay [3] it was 45 nM; in the assay on MV411 cells, 43 nM.
The matching figures for `COC1CCn2ncc(-c3cc(NC(=O)[C@H]4CCC[C@@H](NC(C)=O)C4)ncc3Cl)c2C1` (single isomer, unassigned) [Example 72]: 3 nM, 111 nM, 360 nM and 400 nM.
The corresponding values for `CC(=O)N[C@@H]1CCC[C@@H](C(=O)Nc2cc(-c3cnn4c3CC(C)(C)C4)c(F)cn2)C1` (single isomer, unassigned) [Example 83] are less than 3 nM, 25 nM, 61 nM and 73 nM.
The corresponding values for `O=C(Nc1cc(-c2cnc3n2CCCC3)c(Cl)cn1)[C@@H]1CCCNC1` [Example 1, (R)—N-(5-chloro-4-(5,6,7,8-tetrahydroimidazo[1,2-a]pyridin-3-yl)pyridin-2-yl)piperidine-3-carboxamide] are 49.1 nM, 4500 nM, 1540 nM and 1780 nM.
As to `CC(=O)N[C@@H]1CCC[C@H](C(=O)Nc2cc(-c3cnn4c3CCCC4)ccn2)C1` [Example 3, (1S,3R)-3-acetamido-N-(4-(4,5,6,7-tetrahydropyrazolo[1,5-a]pyridin-3-yl)pyridin-2-yl)cyclohexanecarboxamide], the IC50 was less than 3 nM on CDK9/CycT1 [1], 210 nM on CDK9/CycT1 [2], 520 nM in assay [3] and 440 nM in the assay on MV411 cells.
The matching figures for `O=C(Nc1cc(-c2cnn3c2CCCC3)c(Cl)cn1)[C@H]1C[C@@H](O)C1` [Example 4, Cis-N-(5-chloro-4-(4,5,6,7-tetrahydropyrazolo[1,5-a]pyridin-3-yl)pyridin-2-yl)-3-hydroxycyclobutanecarboxamide]: 3 nM, 170 nM, 220 nM and 280 nM.
The corresponding values for `O=C(Nc1cc(-c2cnn3c2CCCC3)c(Cl)cn1)[C@@H]1CCCNC1` [Example 5, (R)—N-(5-chloro-4-(4,5,6,7-tetrahydropyrazolo[1,5-a]pyridin-3-yl)pyridin-2-yl)piperidine-3-carboxamide] are less than 4 nM, 270 nM, 260 nM and 160 nM.
The corresponding values for `O=C(Nc1cc(-c2cnn3c2CCCC3)ccn1)[C@H]1C[C@@H](O)C1` [Example 6, cis-3-hydroxy-N-(4-(4,5,6,7-tetrahydropyrazolo[1,5-a]pyridin-3-yl)pyridin-2-yl)cyclobutanecarboxamide] are 8 nM, 750 nM, 460 nM and 630 nM.
As for `CC(=O)N[C@@H]1CCC[C@H](C(=O)Nc2cc(-c3cnc4n3CCCC4)c(Cl)cn2)C1` [Example 7, (1S,3R)-3-acetamido-N-(5-chloro-4-(5,6,7,8-tetrahydroimidazo[1,2-a]pyridin-3-yl)pyridin-2-yl)cyclohexanecarboxamide], the IC50 came to 8 nM at CDK9/CycT1 [1], 690 nM on CDK9/CycT1 [2], 1450 nM in assay [3] and 1180 nM in the assay with MV411 cells.
On to `CC(=O)N[C@@H]1CCC[C@H](C(=O)Nc2cc(-c3cnn4c3OCCC4)c(Cl)cn2)C1` [Example 8, (1S,3R)-3-acetamido-N-(5-chloro-4-(6,7-dihydro-5H-pyrazolo[5,1-b][1,3]oxazin-3-yl)pyridin-2-yl)cyclohexanecarboxamide], for which the IC50 on CDK9/CycT1 [1] is less than 3 nM; at CDK9/CycT1 [2], 120 nM; in assay [3], 690 nM; in the assay with MV411 cells, 256 nM.
As for `CC(=O)N[C@@H]1CCC[C@H](C(=O)Nc2cc(-c3cnn4c3CCC4)c(Cl)cn2)C1` [Example 10, (1S,3R)-3-acetamido-N-(5-chloro-4-(5,6-dihydro-4H-pyrrolo[1,2-b]pyrazol-3-yl)pyridin-2-yl)cyclohexanecarboxamide], the IC50 at CDK9/CycT1 [1] was found to be 5 nM; at CDK9/CycT1 [2], 217 nM; in assay [3], 550 nM; with MV411 cells, 333 nM.
The corresponding values for `CC(=O)N[C@@H]1CCC[C@H](C(=O)Nc2cc(-c3cnn4c3COCC4)c(Cl)cn2)C1` [Example 11, (1S,3R)-3-acetamido-N-(5-chloro-4-(6,7-dihydro-4H-pyrazolo[5,1-c][1,4]oxazin-3-yl)pyridin-2-yl)cyclohexanecarboxamide] are 11 nM, 1200 nM, 2700 nM and 1930 nM.
The matching figures for `CC(=O)N[C@@H]1CCC[C@H](C(=O)Nc2cc(-c3cnc4n3CCC4)c(Cl)cn2)C1` [Example 12, (1S,3R)-3-acetamido-N-(5-chloro-4-(6,7-dihydro-5H-pyrrolo[1,2-a]imidazol-3-yl)pyridin-2-yl)cyclohexanecarboxamide]: 5 nM, 350 nM, 830 nM and 701 nM.
For `CC(=O)N[C@@H]1CCC[C@H](C(=O)Nc2cc(-c3cnn4c3CN(C)CC4)c(Cl)cn2)C1` [Example 13, (1S,3R)-3-acetamido-N-(5-chloro-4-(5-methyl-4,5,6,7-tetrahydropyrazolo[1,5-a]pyrazin-3-yl)pyridin-2-yl)cyclohexanecarboxamide], the IC50 on CDK9/CycT1 [1] amounted to 6 nM; at CDK9/CycT1 [2], 240 nM; in assay [3], 820 nM; in the assay on MV411 cells, 914 nM.
For `CC(=O)N[C@@H]1CCC[C@H](C(=O)Nc2cc(-c3cnn4c3NCCC4)c(Cl)cn2)C1` [Example 15, (1S,3R)-3-acetamido-N-(5-chloro-4-(4,5,6,7-tetrahydropyrazolo[1,5-a]pyrimidin-3-yl)pyridin-2-yl)cyclohexanecarboxamide], the IC50 at CDK9/CycT1 [1] was determined as 5 nM; on CDK9/CycT1 [2], 350 nM; in assay [3] it was 1300 nM; in the assay on MV411 cells, 669 nM.
